Results reported in patent US20230167073A1 (Teijin Pharma Limited, priority 2020, published 2023).
Read-outs that look alike come from different tables or passages of the source.

Biological target: T1, Human TRPC6 (Homo sapiens, UniProt Q9Y210)
T1 construct: expressed in transfected cells
T1 sequence (Q9Y210 1-931): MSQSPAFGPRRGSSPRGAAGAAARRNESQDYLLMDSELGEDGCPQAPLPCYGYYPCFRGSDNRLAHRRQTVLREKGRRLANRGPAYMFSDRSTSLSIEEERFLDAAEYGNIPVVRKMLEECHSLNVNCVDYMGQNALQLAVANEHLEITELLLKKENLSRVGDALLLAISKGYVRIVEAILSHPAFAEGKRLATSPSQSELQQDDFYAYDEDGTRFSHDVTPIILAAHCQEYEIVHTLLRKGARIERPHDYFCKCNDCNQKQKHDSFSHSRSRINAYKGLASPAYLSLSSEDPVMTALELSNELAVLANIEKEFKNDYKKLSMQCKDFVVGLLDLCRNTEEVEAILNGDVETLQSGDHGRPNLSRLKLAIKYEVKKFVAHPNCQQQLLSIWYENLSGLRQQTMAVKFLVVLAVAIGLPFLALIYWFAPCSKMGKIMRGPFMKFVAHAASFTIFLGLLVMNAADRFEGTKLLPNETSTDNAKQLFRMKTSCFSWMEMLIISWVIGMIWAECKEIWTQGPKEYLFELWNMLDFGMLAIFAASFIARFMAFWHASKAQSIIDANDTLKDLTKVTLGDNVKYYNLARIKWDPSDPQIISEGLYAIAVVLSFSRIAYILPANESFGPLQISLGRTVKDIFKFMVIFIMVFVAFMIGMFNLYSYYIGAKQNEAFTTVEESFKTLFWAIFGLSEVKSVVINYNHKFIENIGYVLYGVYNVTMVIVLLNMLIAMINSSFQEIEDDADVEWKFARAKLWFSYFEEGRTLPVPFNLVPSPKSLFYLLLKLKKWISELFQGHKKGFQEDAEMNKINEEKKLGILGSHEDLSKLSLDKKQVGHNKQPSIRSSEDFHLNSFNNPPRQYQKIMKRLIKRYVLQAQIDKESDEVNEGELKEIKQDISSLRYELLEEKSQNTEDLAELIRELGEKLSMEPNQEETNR
Assay: Evaluation of TRPC6 channel inhibitory activity (1), FLIPR Calcium 5 Assay Kit, OAG stimulation (Compound Nos. 1-1293)
Type: cell-based
Method in brief: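 Calcium influx read by FLIPR fluorescence in cells stably expressing human TRPC6, dye-loaded 30 min. Compounds preincubated 20 min, then OAG stimulation at 30 μM final. Inhibition fitted by four-parameter logistic regression to give pIC50, reported as +/++/+++ categories.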

[1] = Human TRPC6 stably-expressing cells, OAG 30 μM, FLIPR Calcium 5 Assay Kit, read-out: Inhibitory activity (pIC50 class) (converted)

IC50 [1] [nM] | SMILES | IC50 [nM]
< 10 | Cc1nc(N2CCOCC2)sc1C(=O)c1cc(C#N)ccc1-c1ccc(CCN)cn1 [compound 1076, 4-[5-(2-aminoethyl)pyridin-2-yl]-3-(4-methyl-2-morpholin-4-yl-1,3-thiazole-5-carbonyl)benzonitrile] | –
10 to 1000 | Cc1nc(Oc2cc(F)ccc2-c2ccc(CN)cn2)cc(N2CCOCC2)n1 [compound 1003, [6-[4-fluoro-2-(2-methyl-6-morpholin-4-ylpyrimidin-4-yl)oxyphenyl]pyridin-3-yl]methanamine] | –
> 1000 | Cn1nc(-c2ccccc2)cc1Oc1cc(C#N)ccc1-c1ccc(C(N)C(N)=O)cn1 (stereo not shown) [compound 516, 2-amino-2-[6-[4-cyano-2-(2-methyl-5-phenylpyrazol-3-yl)oxyphenyl]pyridin-3-yl]acetamide] | –
< 10 | N#Cc1ccc(-c2ccc(CCN)cc2)c(Oc2cnnc(N3CCOCC3)c2)c1 [Compound 50, 4-[4-(2-aminoethyl)phenyl]-3-(6-morpholin-4-ylpyridazin-4-yl)oxybenzonitrile] | –
< 10 | CN(CC(F)F)c1cc(Oc2cc(C#N)ccc2-c2ncc(CN)cn2)n(C)n1 [compound 873, 4-[5-(aminomethyl)pyrimidin-2-yl]-3-[5-[2,2-difluoroethyl(methyl)amino]-2-methylpyrazol-3-yl]oxybenzonitrile] | –
10 to 1000 | Cc1cc(Oc2cc(C#N)ccc2-c2ccc(OCCN)cn2)cc(N2CCOCC2)n1 [compound 350, 4-[5-(2-aminoethoxy)pyridin-2-yl]-3-(2-methyl-6-morpholin-4-ylpyridin-4-yl)oxybenzonitrile] | –
– | Cc1cc(Oc2cc(C#N)ccc2-c2ccc([C@H](O)CN)cn2)cc(N2C3CCC2COC3)n1 [compound 446, 4-[5-[(1S)-2-amino-1-hydroxyethyl]pyridin-2-yl]-3-[2-methyl-6-(3-oxa-8-azabicyclo[3.2.1]octan-8-yl)pyridin-4-yl]oxybenzonitrile] | < 10
< 10 | N#Cc1ccc(-c2ccc(CCN)cn2)c(Cn2cnc(-c3ccc(F)cc3)c2)c1 [compound 1147, 4-[5-(2-aminoethyl)pyridin-2-yl]-3-[[4-(4-fluorophenyl)imidazol-1-yl]methyl]benzonitrile] | –
10 to 1000 | Cc1nc(Oc2cc(C#N)ccc2-c2nc(C)c(C(O)CN)s2)cc(-c2ccccc2)n1 (stereo not shown) [Compound 71, 4-[5-(2-amino-1-hydroxyethyl)-4-methyl-1,3-thiazol-2-yl]-3-(2-methyl-6-phenylpyrimidin-4-yl)oxybenzonitrile] | –
< 10 | Cc1nc(Oc2cc(C#N)ccc2-c2ccc([C@H](O)CN)cn2)cc(N2CCCC2)n1 [compound 507, 4-[5-[(1S)-2-amino-1-hydroxyethyl]pyridin-2-yl]-3-(2-methyl-6-pyrrolidin-1-ylpyrimidin-4-yl)oxybenzonitrile] | –
< 10 | Cc1nc(Oc2cc(C#N)ccc2-c2ncc([C@@H](F)CN)cn2)cc(N2CCOCC2)n1 [compound 878, 4-[5-[(1R)-2-amino-1-fluoroethyl]pyrimidin-2-yl]-3-(2-methyl-6-morpholin-4-ylpyrimidin-4-yl)oxybenzonitrile] | –
10 to 1000 | N#Cc1ccc(-c2ccc(CCN)cn2)c(C(=O)c2nnc(N3CCOCC3)o2)c1 [compound 1091, 4-[5-(2-aminoethyl)pyridin-2-yl]-3-(5-morpholin-4-yl-1,3,4-oxadiazole-2-carbonyl)benzonitrile] | –
< 10 | Cn1nc(N2CCOCC2)cc1C(=O)c1cc(C#N)ccc1-c1ncc(CCN)cn1 [compound 1027, 4-[5-(2-aminoethyl)pyrimidin-2-yl]-3-(2-methyl-5-morpholin-4-ylpyrazole-3-carbonyl)benzonitrile] | –
> 1000 | Cc1ncc(N2CCOCC2)cc1Oc1cc(C#N)ccc1-c1ncc(CN)cn1 [compound 920, 4-[5-(aminomethyl)pyrimidin-2-yl]-3-(2-methyl-5-morpholin-4-ylpyridin-3-yl)oxybenzonitrile] | –
< 10 | Cn1nc(-c2ccccc2)cc1Oc1cc(C#N)ccc1-c1cnc(CCN)nc1 [compound 346, 4-[2-(2-aminoethyl)pyrimidin-5-yl]-3 (2-methyl-5-phenylpyrazol-3-yl)oxybenzonitrile] | –
> 1000 | COC(c1cnc(-c2ccccc2)s1)c1cc(C#N)ccc1-c1ccc(CCN)cc1 (stereo not shown) [compound 1230, 4-[4-(2-aminoethyl)phenyl]-3-[methoxy-(2-phenyl-1,3-thiazol-5-yl)methyl]benzonitrile] | –
10 to 1000 | Cc1nc(Oc2cc(C#N)ccc2-c2ncc(CN)cn2)cc(N2CCC(F)CC2)n1 [compound 669, 4-[5-(aminomethyl)pyrimidin-2-yl]-3-[6-(4-fluoropiperidin-1-yl)-2-methylpyrimidin-4-yl]oxybenzonitrile] | –
< 10 | Cc1nc(Oc2cc(C#N)ccc2-c2ccc(C(CN)C(F)(F)F)cc2)cc(N2CCOCC2)n1 (stereo not shown) [Compound 101, 4-[4-(3-amino-1,1,1-trifluoropropan-2-yl)phenyl]-3-(2-methyl-6-morpholin-4-ylpyrimidin-4-yl)oxybenzonitrile] | –
< 10 | Cn1nc(-c2cnccn2)cc1Oc1cc(C#N)ccc1-c1ncc(CCN)cn1 [compound 950, 4-[5-(2-aminoethyl)pyrimidin-2-yl]-3-(2-methyl-5-pyrazin-2-ylpyrazol-3-yl)oxybenzonitrile] | –
> 1000 | COCCOc1cc(Oc2cc(C#N)ccc2-c2ncc(CN)cn2)nc(C)n1 [compound 843, 4-[5-(aminomethyl)pyrimidin-2-yl]-3-[6-(2-methoxyethoxy)-2-methylpyrimidin-4-yl]oxybenzonitrile] | –
> 1000 | Cn1nc(C2CC2)cc1Oc1cc(C#N)ccc1-c1ccc(CC(=O)N2CCNCC2)cn1 [compound 783, 3-(5-cyclopropyl-2-methylpyrazol-3-yl)oxy-4-[5-(2-oxo-2-piperazin-1-ylethyl)pyridin-2-yl]benzonitrile] | –
> 1000 | COC1CCN(c2cc(Oc3cc(C#N)ccc3-n3cc([C@@H](O)CN)cn3)nc(C)n2)CC1 [Compound 251, 4-[4-[(1R)-2-amino-1-hydroxyethyl]pyrazol-1-yl]-3-[6-(4-methoxypiperidin-1-yl)-2-methylpyrimidin-4-yl]oxybenzonitrile] | –
> 1000 | Cn1nc(C2CC2)cc1Oc1cc(C#N)ccc1-c1ccc(C[C@H](N)C(=O)O)cc1 [compound 436, (2S)-2-amino-3-[4-[4-cyano-2-(5-cyclopropyl-2-methylpyrazol-3-yl)oxyphenyl]phenyl]propanoic acid] | –
> 1000 | Cc1cc(Oc2cc(C#N)ccc2-c2cnc(CN)s2)cc(N2CCOCC2)n1 [compound 607, 4-[2-(aminomethyl)-1,3-thiazol-5-yl]-3-(2-methyl-6-morpholin-4-ylpyridin-4-yl)oxybenzonitrile] | –
10 to 1000 | Cn1nc(-c2cnccn2)cc1Oc1cc(C#N)ccc1-c1ncc(CN)cn1 [Compound No. 931, 4-[5-(Aminomethyl)pyrimidin-2-yl]-3-(2-methyl-5-pyrazin-2-ylpyrazol-3-yl)oxybenzonitrile] | –
< 10 | CN(C)c1cc(Oc2cc(C#N)ccc2-c2ccc([C@H](F)CN)cn2)n(C)n1 [compound 909, 4-[5-[(1S)-2-amino-1-fluoroethyl]pyridin-2-yl]-3-[5-(dimethylamino)-2-methylpyrazol-3-yl]oxybenzonitrile] | –
> 1000 | Cc1c(C(=O)c2cc(C#N)ccc2-c2ncc(CN)cn2)cnn1CC1CC1 [compound 1036, 4-[5-(aminomethyl)pyrimidin-2-yl]-3-[1-(cyclopropylmethyl)-5-methylpyrazole-4-carbonyl]benzonitrile] | –
10 to 1000 | Cc1nc(OCC2(C)CC2)cc(Oc2cc(C#N)ccc2-c2ccc(CCN)cc2)n1 [Compound 49, 4-[4-(2-aminoethyl)phenyl]-3-[2-methyl-6-[(1-methylcyclopropyl)methoxy]pyrimidin-4-yl]oxybenzonitrile] | –
10 to 1000 | Cc1nc(Oc2cc(C#N)ccc2-c2ccc(CCN)cc2)cc(N2CCCOCC2)n1 [Compound 31, 4-[4-(2-aminoethyl)phenyl]-3-[2-methyl-6-(1,4-oxazepan-4-yl)pyrimidin-4-yl]oxybenzonitrile] | –
> 1000 | Cc1nc(Oc2cc(F)ccc2-c2ncc(CN)cn2)cc(N2CCOCC2)n1 [compound 1002, [2-[4-fluoro-2-(2-methyl-6-morpholin-4-ylpyrimidin-4-yl)oxyphenyl]pyrimidin-5-yl]methanamine] | –

SMILES | IC50 [1] [nM] | IC50 [nM]
Cc1nc(OCCC(C)C)cc(Oc2cc(C#N)ccc2-c2ccc(CCN)cc2)n1 [Compound 41, 4-[4-(2-aminoethyl)phenyl]-3-[2-methyl-6-(3-methylbutoxy)pyrimidin-4-yl]oxybenzonitrile] | > 1000 | –
